Activity calls are given as the source filed them. The calls are words filed in the database; no cut-off is given here.
Experiments:
A549 [1] = experiment: Antiproliferative activity against human A549 cells measured after 72 hrs by SRB assay; format: functional, cell-based; conditions: Homo sapiens, A549, 72 h
A549 [2] = experiment: Induction of cell morphological changes in human A549 cells at 400 nM measured after 24 hrs; format: functional, cell-based
A549 [3] = experiment: Induction of cell cycle arrest in human A549 cells assessed as accumulation at G2/M phase at 400 nM measured after 24 hrs by propidium iodide based flow cytometry analysis; format: functional
Tubulin (Homo sapiens) [4] = biological target: T1, Tubulin (Homo sapiens) (UniProt P68371+Q9H4B7+P0DPH7+P68366+Q13509+Q71U36+P04350+Q3ZCM7+P07437+P68363+Q9BQE3+Q6PEY2+Q13885+Q9BVA1+Q9BUF5); experiment: Inhibition of tubulin polymerization in human A549 cells at 3 to 100 uM; format: cell-based; conditions: dose 3-100 µM
Tubulin (Homo sapiens) [5] = biological target: T1, Tubulin (Homo sapiens); experiment: Inhibition of tubulin polymerization in human A549 cells assessed as disruption of microtubule network at 200 nM measured after 24 hrs by DAPI staining method; format: cell-based
Tubulin (Homo sapiens) [6] = biological target: T1, Tubulin (Homo sapiens); experiment: Inhibition of tubulin (unknown origin) polymerization incubated for 15 mins at 30 uM relative to control; format: protein-complex assay
KB = experiment: Antiproliferative activity against human KB cells measured after 72 hrs by SRB assay; format: functional, cell-based
[7] = Antiproliferative activity against human KB/VCR cells measured after 72 hrs by SRB assay; format: functional, cell-based
[8] = Resistant index, ratio IC50 for KB/VCR cells over IC50 for KB cells; format: functional
KB-V1 = experiment: Antiproliferative activity against human KB-V1 cells measured after 72 hrs by SRB assay; format: functional, cell-based; conditions: KB-V1, 72 h
[9] = Resistant index, ratio IC50 for KB-V1 cells over IC50 for KB cells; format: functional
K562 = experiment: Antiproliferative activity against human K562 cells measured after 72 hrs by SRB assay; format: functional, cell-based; conditions: K562, 72 h
K562/Adr = experiment: Antiproliferative activity against human K562/Adr cells measured after 72 hrs by SRB assay; format: functional, cell-based
Tubulin (Homo sapiens) [10] = biological target: T1, Tubulin (Homo sapiens); experiment: Inhibition of tubulin polymerization in human A549 cells assessed as disruption of microtubule network at 50 nM measured by DAPI staining method; format: cell-based
KB/VCR = experiment: Antiproliferative activity against human KB/VCR cells at 0.3 to 30 nM measured in presence of 10 uM verapamil after 72 hrs by SRB assay; format: functional, cell-based; conditions: dose 0.3-30 nM
Tubulin (Homo sapiens) [11] = biological target: T1, Tubulin (Homo sapiens); experiment: Inhibition of tubulin polymerization in human A549 cells assessed as disruption of microtubule network at 200 nM measured by DAPI staining method; format: cell-based
A549 [12] = experiment: Induction of cell cycle arrest in human A549 cells assessed as accumulation at G2/M phase at 200 nM measured propidium iodide based flow cytometry analysis; format: functional
[13] = Resistant index, ratio IC50 for K562/Adr cells over IC50 for K562 cells; format: functional
4T1 [14] = experiment: Antitumor activity against mouse 4T1 cells xenografted in female BALB/c mouse assessed as T/C at 25 mg/kg, ip administered every other day for 14 days; format: functional; conditions: time 14 day
RAW264.7 = experiment: Antiproliferative activity against mouse RAW264.7 cells measured after 72 hrs by SRB assay; format: functional, cell-based; conditions: RAW264.7, 72 h
HL-60 = experiment: Antiproliferative activity against human HL-60 cells measured after 72 hrs by SRB assay; format: functional, cell-based; conditions: HL-60, 72 h
THP-1 = experiment: Antiproliferative activity against human THP-1 cells measured after 72 hrs by SRB assay; format: functional, cell-based; conditions: THP-1, 72 h
HeLa = experiment: Antiproliferative activity against human HeLa cells measured after 72 hrs by SRB assay; format: functional, cell-based
HT-1080 = experiment: Antiproliferative activity against human HT-1080 cells measured after 72 hrs by SRB assay; format: functional, cell-based; conditions: HT-1080, 72 h
4T1 [15] = experiment: Antiproliferative activity against mouse 4T1 cells measured after 72 hrs by SRB assay; format: functional, cell-based; conditions: 4T1, 72 h
[16] = Antiproliferative activity against human MRC9 cells measured after 72 hrs by SRB assay; format: functional, cell-based; conditions: MRC9, 72 h
A549 [17] = experiment: Induction of cell cycle arrest in human A549 cells assessed as accumulation at G2/M phase at 20 nM measured propidium iodide based flow cytometry analysis; format: functional
[18] = Metabolic stability in human liver microsomes assessed as intrinsic clearance at 1 uM in presence of NADPH measured by LC-MS/MS analysis; format: ADME, Microsome
4T1 [19] = experiment: Antitumor activity against mouse 4T1 cells xenografted in female BALB/c mouse assessed as T/C at 5 mg/kg, ip administered every other day for 14 days; format: functional; conditions: time 14 day
[20] = Toxicity in female BALB/c mouse xenografted with mouse 4T1 cells assessed as body weight loss at 5 mg/kg, ip administered every other day for 14 days and measured after 7 days; format: organism-based; conditions: in vivo, 336 h, time 14 day

COc1cc(OC)cc(-c2ccc(C(=O)c3ccccc3)cc2)c1
IC50 (A549 [1]): 94 nM | Activity (A549 [2]): Active | Activity (A549 [3]): Active | inhibition (Tubulin (Homo sapiens) [4]): Active | inhibition (Tubulin (Homo sapiens) [5]): Active | inhibition (Tubulin (Homo sapiens) [6]): 23.9% | IC50 (KB): 52.7 nM | IC50 [7]: 42.5 nM | Ratio IC50 [8]: 0.8 | IC50 (KB-V1): 51.7 nM | Ratio IC50 [9]: 1 | IC50 (K562): 137 nM | IC50 (K562/Adr): 305 nM

N#Cc1cccc(-c2ccc(C(=O)c3ccccc3)cc2)c1
IC50 (A549 [1]): 787 nM

COc1cc(C#N)cc(-c2ccc(C(=O)c3ccccc3)c(N)c2)c1
inhibition (Tubulin (Homo sapiens) [6]): 75% | inhibition (Tubulin (Homo sapiens) [10]): Active | Activity (KB/VCR): Active

COc1cc(C#N)cc(-c2ccc(S(=O)(=O)c3ccccc3)cc2)c1
IC50 (A549 [1]): > 10000 nM

COc1cc(C#N)cc(-c2ccc(C(O)c3ccccc3)cc2)c1 (centres undefined)
IC50 (A549 [1]): 770 nM

COc1cccc(C(=O)c2ccc(-c3cc(OC)cc(OC)c3)cc2N)c1
IC50 (A549 [1]): 17 nM

COc1cc(C#N)cc(-c2ccc(C(=O)c3ccccc3Cl)cc2)c1
IC50 (A549 [1]): 306 nM

COc1cc(C#N)cc(-c2ccc(C(=O)c3ccccc3)cc2F)c1
IC50 (A549 [1]): 3890 nM

COc1cc(OC)cc(-c2ccc(C(=O)c3ccccc3)c(N)c2)c1
IC50 (A549 [1]): 49 nM

COc1cccc(-c2ccc(C(=O)c3ccccc3)cc2)c1
IC50 (A549 [1]): 932 nM

COc1cc(C#N)cc(-c2ccc(C(=O)c3ccccc3)cc2)c1
IC50 (A549 [1]): 62 nM | inhibition (Tubulin (Homo sapiens) [6]): 36.1% | inhibition (Tubulin (Homo sapiens) [11]): Active | Activity (A549 [12]): 90% | IC50 (KB): 37.2 nM | IC50 [7]: 30.4 nM | Ratio IC50 [8]: 0.8 | IC50 (KB-V1): 36.1 nM | Ratio IC50 [9]: 1 | IC50 (K562): 144 nM | IC50 (K562/Adr): 226 nM | Ratio IC50 [13]: 1.6 | T/C (4T1 [14]): 47.2%

COc1cc(C#N)cc(-c2ccc(C(=O)c3ccccc3O)cc2)c1
IC50 (A549 [1]): 135 nM

COc1cc(C#N)cc(-c2ccc(C(=O)c3ccccc3N)cc2)c1
IC50 (A549 [1]): 1390 nM

COc1cc(C#N)cc(-c2ccc(C(=O)c3ccc(O)cc3)cc2)c1
IC50 (A549 [1]): > 10000 nM

COc1cc(OC)cc(C(=O)c2ccc(-c3cc(C#N)cc(OC)c3)cc2)c1
IC50 (A549 [1]): 72 nM

O=C(c1ccccc1)c1ccc(-c2cccc(C(F)(F)F)c2)cc1
IC50 (A549 [1]): 6540 nM

COc1cc(C#N)cc(-c2ccc(C(=O)c3ccccn3)cc2)c1
IC50 (A549 [1]): 1640 nM

COc1cc(C#N)cc(-c2ccc(C(=O)c3ccccc3)c(N)c2)c1.Cl
IC50 (A549 [1]): 5 nM | IC50 (RAW264.7): 7.6 nM | IC50 (HL-60): 6.8 nM | IC50 (THP-1): 7.4 nM | IC50 (HeLa): 4.2 nM | IC50 (HT-1080): 6.3 nM | IC50 (4T1 [15]): 7.7 nM | IC50 [16]: 166 nM | Activity (A549 [17]): 90% | IC50 (KB): 6.3 nM | IC50 [7]: 6.1 nM | Ratio IC50 [8]: 1 | IC50 (KB-V1): 6.3 nM | Ratio IC50 [9]: 1 | IC50 (K562): 7.8 nM | IC50 (K562/Adr): 7.1 nM | Ratio IC50 [13]: 0.9 | CLH [18]: 0.581 mL/min/g | T/C (4T1 [19]): 29.9% | Activity [20]: Non-Toxic

COc1cc(C#N)cc(-c2ccc(C(=O)c3ccnc(OC)c3)cc2)c1
IC50 (A549 [1]): 322 nM

COc1cc(C#N)cc(-c2ccc(C(=O)c3ccco3)cc2)c1
IC50 (A549 [1]): > 10000 nM

COc1cc(C#N)cc(-c2ccc(C(=O)c3cccc(O)c3)cc2)c1
IC50 (A549 [1]): 78 nM

COc1cc(C#N)cc(-c2ccc(C(=O)c3ccc(Cl)cc3)cc2)c1
IC50 (A549 [1]): 1070 nM

COc1cc(C#N)cc(-c2ccc(Cc3ccccc3)cc2)c1
IC50 (A549 [1]): > 10000 nM

COc1cc(C#N)cc(-c2cc(OC)c(C(=O)c3ccccc3)cc2OC)c1
IC50 (A549 [1]): > 10000 nM
